# Several values for one entry are separate records, joined by “and”; a condition that tells them apart may be missing. Equal entries are not always repeated. Where two headings read alike, the source gives them in different places.
# How the values were obtained:
# Escherichia coli LeuRS = conditions: read-out: IC50 (E. coli LeuRS); binds to the editing site; cited from earlier work
# Gram-negative pathogens = conditions: cited from earlier work
# [1] = system: Mycobacterium tuberculosis; conditions: M. tuberculosis; cited from earlier work
# M. tuberculosis LeuRS = conditions: read-out: M. tuberculosis LeuRS IC50; cited from earlier work
# [2] = target: T1, S. aureus LeuRS (saLeuRS) (Staphylococcus aureus, UniProt Q2FXH2); assay: radiolabeled LeuRS aminoacylation assay; assay type: biochemical
# T1 sequence (Q2FXH2 1-805): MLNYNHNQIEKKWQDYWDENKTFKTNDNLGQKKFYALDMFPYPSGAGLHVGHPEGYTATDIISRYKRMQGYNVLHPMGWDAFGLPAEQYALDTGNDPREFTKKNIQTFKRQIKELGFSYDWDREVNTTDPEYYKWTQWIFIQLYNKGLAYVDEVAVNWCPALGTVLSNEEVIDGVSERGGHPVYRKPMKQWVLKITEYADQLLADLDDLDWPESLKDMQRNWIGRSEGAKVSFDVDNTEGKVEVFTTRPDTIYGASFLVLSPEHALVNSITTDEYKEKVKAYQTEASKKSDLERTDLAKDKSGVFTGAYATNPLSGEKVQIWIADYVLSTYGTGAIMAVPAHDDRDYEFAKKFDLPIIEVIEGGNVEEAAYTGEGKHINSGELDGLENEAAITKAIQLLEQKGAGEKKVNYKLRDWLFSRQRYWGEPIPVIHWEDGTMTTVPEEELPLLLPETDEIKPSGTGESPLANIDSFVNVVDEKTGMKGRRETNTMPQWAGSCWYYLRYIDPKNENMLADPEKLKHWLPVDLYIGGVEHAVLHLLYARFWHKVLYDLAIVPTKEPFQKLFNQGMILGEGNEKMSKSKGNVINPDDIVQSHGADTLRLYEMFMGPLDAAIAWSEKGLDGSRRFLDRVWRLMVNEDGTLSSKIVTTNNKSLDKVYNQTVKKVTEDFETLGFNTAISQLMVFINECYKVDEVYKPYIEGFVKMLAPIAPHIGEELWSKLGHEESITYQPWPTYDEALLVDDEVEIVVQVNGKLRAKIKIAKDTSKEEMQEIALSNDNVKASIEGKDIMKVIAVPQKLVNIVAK
# [3] = Cytotoxicity, MTT cell viability assay; assay type: cell-based; conditions: monkey, vero cells
# [4] = system: MRSA (ATCC BAA-1762) resistant mutants; conditions: for MIC shift: vs wild-type MRSA
# S. aureus = conditions: previously reported; cited from earlier work
# saLeuRS = conditions: read-out: IC50 (LeuRS); previously reported; ref 25 (Xia et al.); cited from earlier work
# MRSA (ATCC BAA-1762) [5] = assay: Time-kill experiments
# MRSA (ATCC BAA-1762) [6] = assay: Post-antibiotic effect; conditions: 1 h exposure
# [7] = system: MRSA (ATCC BAA-1762) resistant mutants; assay: microbe, parasite or virus in culture; conditions: Staphylococcus aureus, ATCCBAA1762|MRSA, read-out: MIC of resistant colonies
# MRSA ATCC BAA-1762 = assay: MIC by broth microdilution; assay type: cell-based, Staphylococcus aureus
# Vero cells = assay: Cytotoxicity, MTT cell viability assay; assay type: cell-based; conditions: Vero cells, 24 h, MTT
smiles,measurement,setting,value
NC[C@H]1OB(O)c2c(OCCCO)cccc21 [AN3365],IC50,Escherichia coli LeuRS,310 nM
same,MIC,Gram-negative pathogens,0.5 to 4 µg/mL
CCOc1ccc(Cl)c2c1B(O)OC2CN (centres unmarked) [AN6426],MIC,[1],0.13 µM
same,IC50,M. tuberculosis LeuRS,90 nM
O=[N+]([O-])c1ccc(S(=O)(=O)Nc2ccc3c(c2)B(O)OC3)cc1 [PT638],IC50,[2],> 100000 nM
same,IC50 (saLeuRS aminoacylation),"[2]; 7 nM saLeuRS, 20 min pre-incubation, triplicate",did not inhibit saLeuRS
same,CC50 at 24 h,[3],≥ 100 µg/mL
same,MIC shift,"[4]; mutant strain 1, D343Y saLeuRS",16-fold
same,MIC shift,"[4]; mutant strain 2, G303S saLeuRS",8-fold
same,MIC shift,"[4]; mutant strain 3, F233I saLeuRS",8-fold
same,MIC of resistant colonies relative to parent strain,[4]; three colonies picked,at least 8 times
same,MIC against S. aureus,S. aureus,< 0.2 µg/mL
same,IC50,saLeuRS,> 200000 nM
same,reduction in cell numbers over 8 h,MRSA (ATCC BAA-1762) [5]; 1 times the MIC,1.8 log10 cfu/mL
same,reduction in cell numbers over 8 h,MRSA (ATCC BAA-1762) [5]; 4 times the MIC,2.2 log10 cfu/mL
same,reduction in cell numbers over 8 h,MRSA (ATCC BAA-1762) [5]; 16 times the MIC,2.7 log10 cfu/mL
same,type of antibacterial activity in time-kill,MRSA (ATCC BAA-1762) [5]; over the course of 8 h,bacteriostatic
same,duration of the post-antibiotic effect,MRSA (ATCC BAA-1762) [6]; 0.25 × MIC,0.2 h
same,duration of the post-antibiotic effect,MRSA (ATCC BAA-1762) [6]; 4 × MIC,1.5 h
same,MIC,[7],≥ 3.12 µg/mL
Nc1ccc(S(=O)(=O)Nc2ccc3c(c2)B(O)OC3)cc1 [PT662],fold increase in MIC relative to PT638,MRSA ATCC BAA-1762; MRSA ATCC BAA-1762,8 fold
same,MIC MRSA,"MRSA ATCC BAA-1762; MRSA ATCC BAA-1762, broth microdilution",3.1 µg/mL and 3.125 µg/mL
same,Cytotoxicity Vero cells (IC50),Vero cells,≥100 µg/mL
